Key:
Experiment in all cases: relative viability (nuclei count vs DMSO), 5 days (fraction); higher = more cells survive
Tanzisertib + Trametinib = compound: O[C@H]1CC[C@H](Nc2ncc3nc(Nc4c(F)cc(F)cc4F)n([C@H]4CCOC4)c3n2)CC1 [Tanzisertib] + CC(=O)Nc1cccc(-n2c(=O)n(C3CC3)c(=O)c3c(Nc4ccc(I)cc4F)n(C)c(=O)c(C)c32)c1 [Trametinib] (partner 0.02 µM)
Procedure, shortened: (§1)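 Five library-drug doses in √10 steps were combined with a fixed anchor-drug dose, or a single drug was given alone, by pin tool to lung cancer cell lines in 1536-well plates the day after seeding. Nuclei were stained and counted after 5 days. Relative viability is the nuclei count in treated wells over that in vehicle wells, taken as the median of duplicate plates.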

[1] = compound: C1CNCCC1C2=CC(=NN2)C3=CC=NC=C3 + O=C(c1cc(Cc2n[nH]c(=O)c3ccccc23)ccc1F)N1CCN(C(=O)C2CC2)CC1 [Olaparib] (partner 8 µM)
Procedure, shortened: as §1

[2] = compound: C[C@@H](N)c1ccc(C(=O)Nc2ccnc3[nH]ccc23)cc1 + CS(=O)(=O)N1CCN(Cc2cc3nc(-c4cccc5[nH]ncc45)nc(N4CCOCC4)c3s2)CC1 [Pictilisib] (partner 1 µM)
Procedure, shortened: as §1

[3] = compound: C[C@@H](N)c1ccc(C(=O)Nc2ccnc3[nH]ccc23)cc1 + Nc1nc2[nH]cc(CCc3ccc(C(=O)N[C@@H](CCC(=O)O)C(=O)O)cc3)c2c(=O)[nH]1 [Pemetrexed] (partner 0.2 µM)
Procedure, shortened: as §1

| Cell Line | relative viability (Tanzisertib + Trametinib; first compound 0.253 µM) | relative viability (Tanzisertib + Trametinib; first compound 0.8 µM) | relative viability (Tanzisertib + Trametinib; first compound 2.53 µM) | relative viability (Tanzisertib + Trametinib; first compound 8 µM) | relative viability ([1]; first compound 0.08 µM) | relative viability ([1]; first compound 0.8 µM) | relative viability ([1]; first compound 2.53 µM) | relative viability ([1]; first compound 8 µM) | relative viability ([2]; first compound 0.04 µM) | relative viability ([2]; first compound 0.1265 µM) | relative viability ([2]; first compound 0.4 µM) | relative viability ([2]; first compound 1.265 µM) | relative viability ([2]; first compound 4 µM) | relative viability ([3]; first compound 0.04 µM) | relative viability ([3]; first compound 0.1265 µM) | relative viability ([3]; first compound 0.4 µM) | relative viability ([3]; first compound 1.265 µM) | relative viability ([3]; first compound 4 µM) | relative viability (Tanzisertib + Trametinib; first compound 0.08 µM) |
| --- | --- | --- | --- | --- | --- | --- | --- | --- | --- | --- | --- | --- | --- | --- | --- | --- | --- | --- | --- |
| HCC-366 | 0.39 | 0.376 | 0.292 | 0.258 | 0.341 | 0.412 | 0.498 | 0.36 | 0.113 | 0.137 | 0.163 | 0.132 | 0.0875 | 0.154 | 0.148 | 0.163 | 0.241 | 0.184 |  |
| SK-LU-1 | 0.507 | 0.528 | 0.54 | 0.471 | 0.437 | 0.425 | 0.467 | 0.439 | 0.589 | 0.621 | 0.549 | 0.608 | 0.544 | 0.952 | 0.892 | 0.933 | 0.809 | 0.558 | 0.576 |
| HCC-44 | 1.08 | 1.09 | 0.979 | 1.06 | 0.979 | 1.06 | 0.953 | 0.957 | 0.789 | 0.508 | 0.656 | 0.571 | 0.482 | 0.594 | 0.603 | 0.636 | 0.707 | 0.627 | 1.17 |
| A-427 | 0.745 | 0.742 | 0.736 | 0.751 | 0.589 | 0.775 | 0.752 | 0.716 | 0.658 | 0.766 | 0.66 |  | 0.793 | 0.827 | 0.985 | 0.815 | 0.671 | 0.726 | 0.813 |
| SW 1573 | 0.514 | 0.547 | 0.521 | 0.456 |  | 0.612 | 0.655 | 0.626 | 0.467 | 0.56 | 0.543 | 0.539 | 0.43 | 0.792 | 0.792 | 0.845 | 0.582 | 0.703 | 0.555 |
| NCI-H322M | 0.482 | 0.491 | 0.448 | 0.544 | 0.73 | 0.716 | 0.844 | 0.923 | 0.681 | 0.536 | 0.561 |  | 0.731 | 0.79 | 0.654 | 0.588 | 0.48 | 0.602 | 0.464 |
| LK-2 | 0.76 | 0.816 | 0.694 | 0.866 |  | 0.872 | 0.897 | 0.707 | 0.79 | 0.537 | 0.739 |  | 0.822 | 0.345 | 0.264 | 0.22 | 0.282 | 0.362 | 0.916 |
| NCI-H2023 | 0.538 | 0.517 | 0.439 | 0.499 | 0.354 | 0.494 | 0.488 | 0.538 | 0.283 | 0.26 | 0.403 | 0.139 | 0.301 | 0.226 | 0.262 | 0.211 |  | 0.245 | 0.571 |
| NCI-H596 | 0.796 | 0.89 | 0.73 | 0.776 | 0.733 | 0.709 | 0.687 | 0.72 | 0.435 | 0.44 | 0.408 | 0.416 | 0.319 | 0.528 | 0.534 | 0.504 | 0.509 | 0.41 | 0.789 |

From the supplement of paper PMC10307832
